Values quoted from earlier work, collected in patent US20130040971A1, “6-CYCLOALKYL-PYRAZOLOPYRIMIDINONES FOR THE TREATMENT OF CNS DISORDERS” (Boehringer Ingelheim International GmbH, priority 2011, published 2013).

Legend:
human PDE9A = human PDE9A (Homo sapiens, UniProt O76083); settings: concentrations of up to 100 micromolar (μM)
Murine PDE9A = target: T1, Murine PDE9A (Mus musculus, UniProt O70628); settings: concentrations below 200 micromolar
T1 sequence (O70628 1-534): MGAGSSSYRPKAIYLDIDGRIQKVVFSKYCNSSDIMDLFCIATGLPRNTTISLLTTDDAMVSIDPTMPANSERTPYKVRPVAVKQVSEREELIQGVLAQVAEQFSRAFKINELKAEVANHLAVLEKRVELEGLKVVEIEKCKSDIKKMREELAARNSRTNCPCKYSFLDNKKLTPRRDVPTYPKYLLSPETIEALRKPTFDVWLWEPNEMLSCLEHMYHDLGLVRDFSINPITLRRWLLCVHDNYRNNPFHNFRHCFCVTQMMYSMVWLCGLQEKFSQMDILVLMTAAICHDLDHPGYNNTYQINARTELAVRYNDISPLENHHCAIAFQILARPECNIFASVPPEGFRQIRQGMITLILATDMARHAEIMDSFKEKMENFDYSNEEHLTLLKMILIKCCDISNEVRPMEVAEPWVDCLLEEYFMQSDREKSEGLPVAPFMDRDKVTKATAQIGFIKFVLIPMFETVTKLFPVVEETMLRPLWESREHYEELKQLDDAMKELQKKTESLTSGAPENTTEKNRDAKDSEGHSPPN

Chain of human PDE9A (O76083 whole entry): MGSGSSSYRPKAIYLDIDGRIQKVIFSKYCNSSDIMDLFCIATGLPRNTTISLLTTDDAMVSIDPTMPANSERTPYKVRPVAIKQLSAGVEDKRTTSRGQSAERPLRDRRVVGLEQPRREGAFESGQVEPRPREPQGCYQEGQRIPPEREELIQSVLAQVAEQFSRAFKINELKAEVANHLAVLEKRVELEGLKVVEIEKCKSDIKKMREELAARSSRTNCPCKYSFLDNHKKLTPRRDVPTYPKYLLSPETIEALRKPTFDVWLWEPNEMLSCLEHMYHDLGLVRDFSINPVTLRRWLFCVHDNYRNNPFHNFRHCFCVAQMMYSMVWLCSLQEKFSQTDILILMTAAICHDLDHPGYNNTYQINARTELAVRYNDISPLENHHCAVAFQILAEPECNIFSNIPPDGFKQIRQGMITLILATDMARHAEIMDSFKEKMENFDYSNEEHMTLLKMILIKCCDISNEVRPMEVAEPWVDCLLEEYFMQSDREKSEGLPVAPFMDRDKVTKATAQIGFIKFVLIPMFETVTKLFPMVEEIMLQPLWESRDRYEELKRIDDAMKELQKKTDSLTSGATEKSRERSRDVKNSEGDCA

Row | Compound | inhibition on the isolated enzyme (human PDE9A) (human PDE9A) | inhibition of murine PDE9A (Murine PDE9A)
1 | CC(C)Cn1c(=O)n(C)c(=O)c2[nH]cnc21 [IBMX] | no inhibition | not inhibited
2 | COc1ccc(C2CNC(=O)C2)cc1OC1CCCC1 (stereo not drawn) [rolipram] | no inhibition | –
3 | CCOC(=O)C1=C[C@]2(CC)CCCN3CCc4c(n1c1ccccc41)[C@@H]32 [vinpocetine] | no inhibition | –
4 | CC(=O)Nc1ccc(-c2c[nH]c(=O)cn2)cc1 [SKF94120] | no inhibition | –
5 | OCCN(CCO)c1nc(N2CCCCC2)c2nc(N(CCO)CCO)nc(N3CCCCC3)c2n1 [dipyridamole] | no inhibition | –
